Data published in ChEMBL document CHEMBL5032495, “Discovery of Novel Tacrine-Pyrimidone Hybrids as Potent Dual AChE/GSK-3 Inhibitors for the Treatment of Alzheimer's Disease” (J Med Chem, 2021).
Active and inactive are the calls of the source. The calls are words filed in the database; no cut-off is given here.

What was measured:
Acetylcholinesterase = biological target: T1, Acetylcholinesterase (Mus musculus, UniProt P21836); assay: Inhibition of mouse AChE using acetylthiocholine iodide as substrate incubated for 20 mins by Ellman's method
T1 sequence (P21836 whole entry): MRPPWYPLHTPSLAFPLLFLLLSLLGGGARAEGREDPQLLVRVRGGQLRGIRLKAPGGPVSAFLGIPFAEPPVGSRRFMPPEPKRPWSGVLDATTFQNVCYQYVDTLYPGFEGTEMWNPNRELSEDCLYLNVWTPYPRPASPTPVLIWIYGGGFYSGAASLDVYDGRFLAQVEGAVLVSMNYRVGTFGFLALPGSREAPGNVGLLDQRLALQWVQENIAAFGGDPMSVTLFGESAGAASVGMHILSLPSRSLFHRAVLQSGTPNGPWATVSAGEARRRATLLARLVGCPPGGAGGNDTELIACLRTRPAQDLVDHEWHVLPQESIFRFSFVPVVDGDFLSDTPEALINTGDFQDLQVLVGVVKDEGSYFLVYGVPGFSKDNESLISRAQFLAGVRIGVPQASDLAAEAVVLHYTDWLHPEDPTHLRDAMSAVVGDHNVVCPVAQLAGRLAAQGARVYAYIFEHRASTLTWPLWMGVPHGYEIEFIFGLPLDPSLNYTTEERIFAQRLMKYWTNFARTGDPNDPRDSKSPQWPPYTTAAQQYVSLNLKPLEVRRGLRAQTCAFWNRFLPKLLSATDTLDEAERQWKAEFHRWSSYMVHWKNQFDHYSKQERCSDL

[1] = Half life in ICR mouse at 5 mg/kg, iv measured upto 24 hrs by UPLC-MS/MS analysis; format: ADME, organism-based; conditions: in vivo
[2] = Half life in ICR mouse at 15 mg/kg, ip measured upto 24 hrs by UPLC-MS/MS analysis; format: ADME, organism-based; conditions: in vivo
[3] = Tmax in ICR mouse at 5 mg/kg, iv measured upto 24 hrs by UPLC-MS/MS analysis; format: ADME, organism-based; conditions: in vivo
[4] = Tmax in ICR mouse at 15 mg/kg, ip measured upto 24 hrs by UPLC-MS/MS analysis; format: ADME, organism-based; conditions: in vivo
[5] = Cmax in ICR mouse at 5 mg/kg, iv measured upto 24 hrs by UPLC-MS/MS analysis; format: ADME, organism-based; set-up: route intravenous, dose 5 mg/kg, time <=24; conditions: in vivo
[6] = Cmax in ICR mouse at 15 mg/kg, ip measured upto 24 hrs by UPLC-MS/MS analysis; format: ADME, organism-based; set-up: route intraperitoneal, dose 15 mg/kg, time <=24; conditions: in vivo
[7] = AUClast in ICR mouse at 5 mg/kg, iv measured upto 24 hrs by UPLC-MS/MS analysis; format: ADME, organism-based; set-up: route intravenous, dose 5 mg/kg, time <=24; conditions: in vivo
[8] = AUClast in ICR mouse at 15 mg/kg, ip measured upto 24 hrs by UPLC-MS/MS analysis; format: ADME, organism-based; set-up: route intraperitoneal, dose 15 mg/kg, time <=24; conditions: in vivo
[9] = Volume of distribution in ICR mouse at 5 mg/kg, iv measured upto 24 hrs by UPLC-MS/MS analysis; format: ADME, organism-based; conditions: in vivo
[10] = Volume of distribution in ICR mouse at 15 mg/kg, ip measured upto 24 hrs by UPLC-MS/MS analysis; format: ADME, organism-based; conditions: in vivo
[11] = Apparent oral clearance in ICR mouse at 5 mg/kg measured upto 24 hrs by UPLC-MS/MS analysis; format: ADME, organism-based; conditions: in vivo
[12] = Apparent oral clearance in ICR mouse at 15 mg/kg measured upto 24 hrs by UPLC-MS/MS analysis; format: ADME, organism-based; conditions: in vivo
[13] = MRTlast in ICR mouse at 5 mg/kg, iv measured upto 24 hrs by UPLC-MS/MS analysis; format: ADME, organism-based; conditions: in vivo
[14] = MRTlast in ICR mouse at 15 mg/kg, ip measured upto 24 hrs by UPLC-MS/MS analysis; format: ADME, organism-based; conditions: in vivo
[15] = Bioavailability in ICR mouse at 15 mg/kg, ip measured upto 24 hrs by UPLC-MS/MS analysis; format: ADME, organism-based; conditions: in vivo
[16] = Drug concentration in ICR mouse plasma at 15 mg/kg, ip measured after 0.5 hrs by UPLC-MS/MS analysis; format: ADME, organism-based
[17] = Drug concentration in ICR mouse plasma at 15 mg/kg, ip measured after 1 hr by UPLC-MS/MS analysis; format: ADME, organism-based
[18] = Drug concentration in ICR mouse plasma at 15 mg/kg, ip measured after 2 hrs by UPLC-MS/MS analysis; format: ADME, organism-based
[19] = Drug concentration in ICR mouse plasma at 15 mg/kg, ip measured after 4 hrs by UPLC-MS/MS analysis; format: ADME, organism-based
[20] = Drug concentration in ICR mouse brain at 15 mg/kg, ip measured after 0.5 hrs by UPLC-MS/MS analysis; format: ADME, organism-based; conditions: read-out: Drug uptake
[21] = Drug concentration in ICR mouse brain at 15 mg/kg, ip measured after 1 hr by UPLC-MS/MS analysis; format: ADME, organism-based; conditions: read-out: Drug uptake
[22] = Drug concentration in ICR mouse brain at 15 mg/kg, ip measured after 2 hrs by UPLC-MS/MS analysis; format: ADME, organism-based; conditions: read-out: Drug uptake
[23] = Drug concentration in ICR mouse brain at 15 mg/kg, ip measured after 4 hrs by UPLC-MS/MS analysis; format: ADME, organism-based; conditions: read-out: Drug uptake
[24] = Ratio of drug concentration in brain to plasma in ICR mouse at 15 mg/kg, ip measured after 0.5 hrs by UPLC-MS/MS analysis; format: ADME, organism-based
[25] = Ratio of drug concentration in brain to plasma in ICR mouse at 15 mg/kg, ip measured after 1 hr by UPLC-MS/MS analysis; format: ADME, organism-based
[26] = Ratio of drug concentration in brain to plasma in ICR mouse at 15 mg/kg, ip measured after 2 hrs by UPLC-MS/MS analysis; format: ADME, organism-based
[27] = Ratio of drug concentration in brain to plasma in ICR mouse at 15 mg/kg, ip measured after 4 hrs by UPLC-MS/MS analysis; format: ADME, organism-based
[28] = biological target: T2, Glycogen synthase kinase-3 beta (Homo sapiens, UniProt P49841); assay: Inhibition of GSK-3beta in glyceraldehyde-treated human SH-SY5Y cells assessed as reduction in phosphorylated Tau levels at S199 site measured after 24 hrs by ELISA
Target sequence in this assay (P49841 whole entry, looked up): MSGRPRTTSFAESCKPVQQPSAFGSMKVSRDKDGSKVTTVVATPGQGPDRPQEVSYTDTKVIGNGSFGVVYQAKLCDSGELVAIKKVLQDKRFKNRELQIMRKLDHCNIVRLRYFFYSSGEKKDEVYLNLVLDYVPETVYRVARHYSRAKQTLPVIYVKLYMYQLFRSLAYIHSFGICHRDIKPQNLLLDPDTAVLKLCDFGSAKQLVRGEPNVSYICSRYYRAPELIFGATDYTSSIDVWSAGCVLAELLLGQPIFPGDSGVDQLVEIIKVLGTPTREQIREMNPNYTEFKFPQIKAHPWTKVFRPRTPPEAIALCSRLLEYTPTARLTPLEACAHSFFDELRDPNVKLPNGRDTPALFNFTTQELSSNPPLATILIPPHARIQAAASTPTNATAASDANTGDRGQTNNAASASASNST

[29] = biological target: T2, Glycogen synthase kinase-3 beta; assay: Inhibition of GSK-3beta in glyceraldehyde-treated human SH-SY5Y cells assessed as reduction in phosphorylated Tau levels at S396 site measured after 24 hrs by ELISA
Target sequence in this assay (P49841 whole entry, looked up): as above

SH-SY5Y [30] = assay: Neuroprotective activity against glyceraldehyde-induced neurotoxicity in human SH-SY5Y cells assessed as increase in cell viability at 0.5 to 5 uM incubated for 24 hrs by MTT assay; format: functional, cell-based; conditions: dose 0.5-5 µM
SH-SY5Y [31] = assay: Neuroprotective activity in human SH-SY5Y cells assessed as prevention of glyceraldehyde-induced neurite shortening at 0.5 to 5 uM incubated for 1 hr by confocal microsocopic analysis; format: functional, cell-based; conditions: dose 0.5-5 µM
[32] = biological target: Glycogen synthase kinase-3 alpha (Homo sapiens) (UniProt P49840); assay: Inhibition of GSK-3alpha (unknown origin) at 1000 nM
Sequence of Glycogen synthase kinase-3 alpha (Homo sapiens) (P49840 2-483 limits assumed): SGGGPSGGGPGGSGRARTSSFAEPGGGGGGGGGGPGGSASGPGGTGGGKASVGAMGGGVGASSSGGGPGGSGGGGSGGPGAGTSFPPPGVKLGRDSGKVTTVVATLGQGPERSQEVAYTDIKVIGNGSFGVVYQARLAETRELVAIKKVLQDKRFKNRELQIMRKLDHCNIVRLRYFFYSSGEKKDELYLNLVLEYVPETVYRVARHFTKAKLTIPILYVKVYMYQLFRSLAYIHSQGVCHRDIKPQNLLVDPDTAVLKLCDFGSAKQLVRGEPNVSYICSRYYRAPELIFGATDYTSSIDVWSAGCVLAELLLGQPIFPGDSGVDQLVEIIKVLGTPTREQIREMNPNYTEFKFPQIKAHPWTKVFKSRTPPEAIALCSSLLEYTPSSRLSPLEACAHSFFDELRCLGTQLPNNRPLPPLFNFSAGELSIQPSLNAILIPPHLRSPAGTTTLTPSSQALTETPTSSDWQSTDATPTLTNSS

[33] = biological target: T2, Glycogen synthase kinase-3 beta; assay: Inhibition of GSK-3beta (unknown origin) at 1000 nM
Target sequence in this assay (P49841 whole entry, looked up): as the sequence (P49841 whole entry, looked up) above

[34] = Toxicity in ICR mouse assessed as emesis at 15 mg/kg, ip measured after 15 days; format: organism-based; conditions: in vivo, 360 h, time 15 day
[35] = Toxicity in ICR mouse assessed as diarrhea at 15 mg/kg, ip measured after 15 days; format: organism-based; conditions: in vivo, 360 h, time 15 day
[36] = Toxicity in ICR mouse assessed as swimming motility impairment at 15 mg/kg, ip measured after 15 days; format: organism-based; conditions: in vivo, 360 h, time 15 day
[37] = biological target: T2, Glycogen synthase kinase-3 beta
Target sequence in this assay (P49841 whole entry): as the sequence (P49841 whole entry, looked up) above
Description: Inhibition of human recombinant GSK-3beta using prephosphorylated polypeptide as substrate incubated for 30 mins in presence of ATP by Kinase-Glo luminescence assay

## Cn1c(NCCCCCCCNc2c3c(nc4cc(Cl)ccc24)CCCC3)nc(-c2ccncc2F)cc1=O
Acetylcholinesterase
  IC50: 51.1 µM
[1]
  half-life: 219 min
[2]
  half-life: 69 min
[3]
  Tmax: 1.98 min
[4]
  Tmax: 8.34 min
[5]
  Cmax: 2810 ng/mL
[6]
  Cmax: 1870 ng/mL
[7]
  AUC(0-t) at 24 h: 1560 ng·h/mL
[8]
  AUC(0-t) at 24 h: 1660 ng·h/mL
[9]
  Vd: 16.4 L/kg
[10]
  Vd: 14.14 L/kg
[11]
  CL/F: 0.0513 mL/min/kg
[12]
  CL/F: 0.152 mL/min/kg
[13]
  MRT last at 24 h: 183 min
[14]
  MRT last at 24 h: 46.8 min
[15]
  bioavailability: 35.3%
[16]
  concentration at 0.5 h: 866 ng/mL
[17]
  concentration at 1 h: 76.8 ng/mL
[18]
  concentration at 2 h: 26.8 ng/mL
[19]
  concentration at 4 h: 3.47 ng/mL
[20]
  concentration at 0.5 h: 23.6 ng/g
[21]
  concentration at 1 h: 11.1 ng/g
[22]
  concentration at 2 h: 12.2 ng/g
[23]
  concentration at 4 h: 5.99 ng/g
[24]
  Kp at 0.5 h: 0.028
[25]
  Kp at 1 h: 0.148
[26]
  Kp at 2 h: 0.522
[27]
  Kp at 4 h: 1.92
[28]
  inhibition: Dose-Dependent Effect
[29]
  inhibition: Dose-Dependent Effect
SH-SY5Y [30]
  Activity: Active
SH-SY5Y [31]
  Activity: Dose-Dependent Effect
[32]
  inhibition: Active
[33]
  inhibition: Active
[34]
  Activity: Non-Toxic
[35]
  Activity: Non-Toxic
[36]
  Activity: Non-Toxic
[37]
  IC50: 89.3 µM
